# Reference: patent publication EP0190464A2, “Novel anti-cancer drugs” (YEDA RESEARCH AND DEVELOPMENT COMPANY LIMITED, priority 1984, dated 1986)
# Columns and labels:
# 38C-13 tumor cells = test: Inhibition of DNA synthesis ([3H]-methylthymidine incorporation); format: cell-based, murine; settings: Fig. 2
# Experimental: Inhibition of DNA synthesis by the free platinum compounds of their complexes was determined as follows. Tumor cells (2-5 x 10^4/0.1 ml) suspended in their suitable grwoth media were dispersed into wells of microtiter plates. The Platinum compounds or complexes were added to the cells in […] aliquots. The plates were incubated for 21 hr at 37 °C in a humidified atmosphere of 5% CO2 in air. At that time 10 µl containing 0.5 µci of [^3H]-methylthymidine were added to each well and the plates were incubated for 3 hr as above. The reaction was terminated using a Titerteck cell harvester.
# Pt complexes used in the in vitro and in vivo experiments were prepared under conditions of maximal binding, that is, 98-100% binding of the free drugs. In vivo experiments were performed with cis-Pt and cis-aq complexes. […] Cis-Pt and cis-aq complexes of dex-NH2 were tested and found to be active in vitro against 5 murine tumors (EL-4, 38-C13, L1210, RDM and F-9) and 2 human derived tumors (Hela and Osteosarcoma). […] This activity was lost, however upon exhaustive dialysis.
# tumors = test: Activity against tumors in vivo (general statement); settings: uncomplexed salt
# [1] = tested on: F-9 murine embryonal carcinoma cells; test: In vivo suppression of F-9 embryonal carcinoma, I.P. tumor and I.P. treatment; set-up: species or system Balb/c mice; effective dose (range): unit not given here; settings: for survival (average): free drug at optimal doses, one day after tumor
# Experimental: In vivo experiments were performed with F-9 murine embryonal carcinoma cells which were maintained in-vitro in DMEM supplemented with 10% fetal calf serum, glutamine and antibiotics, in gelatine (0.1%) coated culture flasks. In-vivo experiments were performed in female Balb/c mice at the age of 2-3 months.
# In experiment I, 300,000 tumor cells were inoculated intraperitoneally (I.P.) into Balb/c mice.
# The in vivo chemotherapeutic effect of the different complexes in comparison with free drugs was evaluated by the suppression of F9 embryonal carcinoma in Balb/c mice. […]
# [2] = Toxicity in tumor-free mice, single I.V. injection; format: in vivo; settings: free drugs, ICR mice
# Experimental: Preliminary toxicity experiments with CM-dex and ?ex-NH2 complexes were performed to compare the toxicity of the free drugs and the complexes in tumor-free ICR mice. Pairs of mice were given a single I.V. injection of each of the drugs or drug complexes at a wide concentration range. Death of mice due to toxicity occurred between 1 to 7 days after injection. The results (Table 8) indicate the maximal non-toxic (none of the mice died) and the minimal toxic dose (death of both mice). […] The CM-dex T-40 of both drugs were also toxic although somewhat less than the free drugs, with no significant difference between the cis-Pt and cis-aq complexes. […] The dex-NH2 were also considerably less toxic than the free drugs.
# [3] = Exp. II: 600,000 cells I.P., treatment 2 days after tumor, 60 µg
# [4] = Exp. I: 300,000 tumor cells I.P., 50 µg, out of 5 TBM
Compound,fold less inhibitory than cis-Pt and cis-aq (38C-13 tumor cells) [fold],"IC50 (38C-13 tumor cells; read-out: 50% inhibition of DNA synthesis, 21 hr at 37°C with drug, then 3 hr [3H]-methylthymidine pulse) [µM]",activity against tumors in vivo (tumors),"died of the tumor ([1]; Exp. I: 300,000 tumor cells I.P., 100 ug I.P. 1 day after tumor inoculation)","time of death of the tumor after receiving the tumor cells ([1]; Exp. I: 300,000 tumor cells I.P., 100 ug I.P. day 1, the 1/5 mouse that died of tumor) [days]","protective against the tumor [1, 3]","survival (average) ([1]; F9 tumor, Table 7)","died of drug toxicity [1, 4]","died of the tumor [1, 4]","survived [1, 4]","non-protective against the tumor [1, 3]","toxic [1, 3]","effective dose (range) ([1]; F9 tumor, single dose, Table 5)","toxicity at a slightly higher than optimal dose ([1]; F9 tumor, free drug, Table 7)",toxicity compared with cis-Pt [2]
[Cl][Pt-2]([Cl])([Cl])[Cl].[K+].[K+] [K2PtCl4],20,20,essentially inactive,,,,,,,,,,,,
"N.N.[Cl][Pt][Cl] [cis-Pt, Cis-dichlorodiammine Platinum (II)]",,,,1/5,54,4/5,60-80%,,,,,,,,
"N.N.O.O.O=[N+]([O-])[O-].O=[N+]([O-])[O-].[Pt+2] [cis-aq, diaquodiammine Platinum (II)-nitrate]",,,,,,,60-80%,1,3,1,2/5,3/5,40,at least partially toxic,more toxic than cis-Pt
